# Reference: publication PMC11997989, “Design of Novel Mercapto-3-phenylpropanoyl Dipeptides as Dual Angiotensin-Converting Enzyme C–Domain-Selective/Neprilysin Inhibitors” (Journal of Medicinal Chemistry, 2025)
# Tests used:
# human NEP ectodomain [1] = target: T1, human NEP ectodomain (Homo sapiens, UniProt P08473); assay: NEP inhibition assay (continuous fluorogenic activity assay); assay type: biochemical; details: for IC50: 0.4 nM NEP, mean ± standard error, n ≥ 2
# T1 construct: A purified human NEP ectodomain was used in continuous activity assays; made in house
# Source text: Furthermore, while comparing Ki values (assuming they can be accurately determined in vitro using available kinetic models) provides information on the relative binding affinities in the absence of substrate, in vivo the extent of enzyme inhibition will be affected by the relative concentrations and affinities of the physiological substrates competing for the binding sites.
# nACE [2] = target: T2, nACE (Homo sapiens, UniProt P12821); assay: ACE inhibition assay, nACE (fluorogenic end point, Z-FHL); assay type: biochemical; details: for reduction in affinity for nACE compared to omapatrilat: factor, from IC50 values; for IC50: ~1 nM nACE, 0.5 mM Z-FHL, mean ± standard error, n ≥ 2
# T2 construct: using purified recombinant single domain human ACE proteins and the human NEP ectodomain as previously described; made in house
# Source text: (§1) For an accurate comparison of the inhibitor potencies across different enzymes and substrates, it is preferable to determine inhibition constants (Ki values). […] In the case of these new analogues, it was more challenging to accurately determine Ki values that could reliably be used to determine selectivity. […] This highlights the challenges in extrapolating data from in vitro assays to predict in vivo selectivity between targets. Furthermore, while comparing Ki values (assuming they can be accurately determined in vitro using available kinetic models) provides information on the relative binding affinities in the absence of substrate, in vivo the extent of enzyme inhibition will be affected by the relative concentrations and affinities of the physiological substrates competing for the binding sites. Given that accurate Ki values could not be calculated in a consistent manner for all compound-enzyme combinations, IC50 values are reported (Table 1).
# (§2) Purified fully glycosylated human cACE and nACE proteins[36],[37] were used in fluorogenic end point activity assays utilizing Cbz-Phe-His-Leu (Z-FHL, Bachem Ltd., nACE Km = 600 μM; cACE Km = 60 μM) as the substrate as previously described.[32] Final reactions contained ∼1 nM nACE/cACE and 0.5 mM Z-FHL.
# cACE [3] = target: T3, cACE (Homo sapiens, UniProt P12821); assay: ACE inhibition assay, cACE (fluorogenic end point, Z-FHL); assay type: biochemical; details: for C-selectivity factor: nACE IC50/cACE IC50; for IC50: ~1 nM cACE, 0.5 mM Z-FHL, mean ± standard error, n ≥ 2
# T3 construct: using purified recombinant single domain human ACE proteins and the human NEP ectodomain as previously described; made in house
# Source text: as §1, §2
# NEP = target: T4, NEP (Homo sapiens, UniProt P08473); assay: Michaelis-Menten inhibition kinetics (mode of inhibition), NEP; assay type: biochemical; details: enzyme and inhibitor pre-incubated 15 min; best-fitting model
# T4 construct: A purified human NEP ectodomain was used in continuous activity assays; made in house
# nACE [4] = target: T2, nACE; assay: Michaelis-Menten inhibition kinetics (mode of inhibition), nACE; assay type: biochemical; details: enzyme and inhibitor pre-incubated 15 min; best-fitting model
# Procedure: (§3) page 9: curve. […] The apparent […]) obtained from this equation can then be converted to K i as for an IC50 value using Equation 1 provided the substrate competes with the inhibitor for the active site. (Et [[…] = V0(1 - i i ) Eq 2 2Et Where Vo is activity in absence of inhibitor, Vi is activity in presence of inhibitor, [I] is inhibitor concentration and Et is total enzyme concentration. Due to the slow binding of many protease inhibitors, inhibitors are typically pre-incubated with the enzyme prior to the addition of substrate to ensure that inhibition constants are measured under steady-state conditions. Accordingly, if an inhibitor forms a very tight complex with the enzyme resulting in a very slow off-rate, the inhibitor may not dissociate in the time of the experiment. Determining the Ki values for the mercaptoacyl inhibitors was challenging due to the chemical instability of the thiol group (although this was controlled by making up fresh stock before each experiment and diluting them immediately), the high potency, and the slow off rates observed in some cases, particularly for cACE. […] This is exemplified by the data for AD016. […] The K i values for the cACE determined in from this model were also inconsistent and were influence by the amount of enzyme used to the assay, again indicative of tight-binding conditions (Figure S1 C and D). […]
# cACE [5] = target: T3, cACE; assay: Michaelis-Menten inhibition kinetics (mode of inhibition), cACE; assay type: biochemical; details: enzyme and inhibitor pre-incubated 15 min; best-fitting model
# Procedure: as §3
# nACE [6] = target: T2, nACE; assay: Jump dilution assay, nACE; assay type: biochemical; details: 15 min pre-incubation, 20-fold dilution, activity immediately and ~3 h later, 1 mM Z-FHL
# Procedure: (§4) Figure S2: Jump dilution experiment forAD016. A) Enzyme and inhibitor were pre-incubated for 15 min and then an aliquot of each was removed and diluted 20-fold in assay buffer. Activity assays were performed on both the undiluted (A and C) and diluted (B and D) enzyme-inhibitor mixes immediately and ~3h. later. Reaction was initiated with Z-FHL substrate (1mM final concentration). Final enzyme and inhibitor concentrations are […]
# (§5) The Morrison equation was fitted to the same data but gave a poor fit when Et was constrained to the enzyme concentration used in the assay and an unrealistic Et if this value was left unconstrained (Figure S3 C & D). The obvious explanation for the high Et predicted by the model is that the inhibitor concentration is much lower than […]
# (§6) the nACE data would imply the inhibitor concentration is ~350-fold lower than expected while the cACE data implies it is 40-fold lower than expected. The same inhibitor dilution series was […]
# (§7) (1 picture or pasted object on this page, not shown here)
# (§8) Figure S4: Morrison plots for the inhibition of cACE by compound AD016. Two assays with carried out in parallel. One using 1nM final enzyme concentration and the other using 5-fold less (0.2nM). The model was fitted without constraining the Et. The Et predicted from data set using the Morrison equation is indicated on the graph. […]
# cACE [7] = target: T3, cACE; assay: Jump dilution assay, cACE; assay type: biochemical; details: 15 min pre-incubation, 20-fold dilution, activity immediately and ~3 h later, 1 mM Z-FHL
# Procedure: as §4, §5, §6, §7, §8
# human NEP ectodomain [8] = target: T1, human NEP ectodomain; design: method as in PMID 35113565; details: stated in discussion, LisW data previously reported; cited from earlier work
# patients = details: OCTAVE study, higher than the ACE inhibitor enalapril; cited from earlier work
# [9] = 5 μM MCA-RPPGFSAFK(Dnp)-OH substrate
# T2 sequence (P12821 40-624 limits assumed): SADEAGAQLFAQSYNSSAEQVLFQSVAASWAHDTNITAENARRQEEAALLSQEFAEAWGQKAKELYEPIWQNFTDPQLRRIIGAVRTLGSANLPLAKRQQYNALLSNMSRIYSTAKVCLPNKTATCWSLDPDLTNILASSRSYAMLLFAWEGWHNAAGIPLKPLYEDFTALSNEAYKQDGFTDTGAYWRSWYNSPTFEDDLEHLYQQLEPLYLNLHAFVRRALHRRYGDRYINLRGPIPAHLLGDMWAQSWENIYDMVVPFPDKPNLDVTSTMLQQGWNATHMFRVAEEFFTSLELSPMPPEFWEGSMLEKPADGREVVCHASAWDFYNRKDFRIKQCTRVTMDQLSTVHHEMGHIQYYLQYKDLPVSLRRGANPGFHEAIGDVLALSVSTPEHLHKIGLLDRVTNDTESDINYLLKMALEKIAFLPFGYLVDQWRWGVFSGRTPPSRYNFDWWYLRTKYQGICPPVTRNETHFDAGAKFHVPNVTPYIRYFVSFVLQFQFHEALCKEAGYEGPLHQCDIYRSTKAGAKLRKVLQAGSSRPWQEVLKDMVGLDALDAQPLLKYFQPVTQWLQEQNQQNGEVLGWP
# T3 sequence (P12821 643-1222 limits assumed): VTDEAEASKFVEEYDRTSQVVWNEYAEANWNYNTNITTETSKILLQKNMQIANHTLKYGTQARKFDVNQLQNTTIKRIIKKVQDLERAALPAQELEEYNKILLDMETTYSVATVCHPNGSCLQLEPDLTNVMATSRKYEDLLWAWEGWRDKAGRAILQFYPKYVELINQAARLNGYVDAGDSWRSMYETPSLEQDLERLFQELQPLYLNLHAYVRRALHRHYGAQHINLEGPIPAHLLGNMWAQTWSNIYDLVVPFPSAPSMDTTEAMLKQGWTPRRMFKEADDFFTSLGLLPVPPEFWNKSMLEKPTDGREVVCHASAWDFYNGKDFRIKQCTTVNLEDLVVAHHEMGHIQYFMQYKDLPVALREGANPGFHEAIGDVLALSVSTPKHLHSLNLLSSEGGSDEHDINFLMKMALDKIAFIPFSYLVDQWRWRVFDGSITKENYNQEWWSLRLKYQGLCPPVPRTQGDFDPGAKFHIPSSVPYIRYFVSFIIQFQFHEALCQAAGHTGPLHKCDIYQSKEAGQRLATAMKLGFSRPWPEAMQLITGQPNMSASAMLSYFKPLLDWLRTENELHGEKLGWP
# T1 sequence (P08473 52-750 limits assumed): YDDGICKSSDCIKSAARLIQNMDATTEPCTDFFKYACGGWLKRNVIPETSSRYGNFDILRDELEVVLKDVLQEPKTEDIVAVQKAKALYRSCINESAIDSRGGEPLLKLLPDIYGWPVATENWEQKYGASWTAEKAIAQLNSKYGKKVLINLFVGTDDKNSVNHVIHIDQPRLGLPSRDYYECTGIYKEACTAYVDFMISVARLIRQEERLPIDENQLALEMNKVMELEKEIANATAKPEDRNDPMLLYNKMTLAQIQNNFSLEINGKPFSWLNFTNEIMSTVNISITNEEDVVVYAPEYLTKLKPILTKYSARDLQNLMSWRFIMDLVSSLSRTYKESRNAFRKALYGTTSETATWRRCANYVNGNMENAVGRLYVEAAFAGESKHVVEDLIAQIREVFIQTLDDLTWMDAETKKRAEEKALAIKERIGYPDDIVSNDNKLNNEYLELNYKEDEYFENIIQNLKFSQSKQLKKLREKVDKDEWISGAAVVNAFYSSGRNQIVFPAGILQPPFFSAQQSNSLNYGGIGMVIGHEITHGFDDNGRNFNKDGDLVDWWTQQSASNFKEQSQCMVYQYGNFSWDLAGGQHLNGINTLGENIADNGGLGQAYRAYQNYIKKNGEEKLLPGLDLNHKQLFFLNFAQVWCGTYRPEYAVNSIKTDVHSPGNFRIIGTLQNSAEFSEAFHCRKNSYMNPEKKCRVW
# T4 sequence (P08473 52-750 limits assumed): as above
IC50 (cACE [3]) [nM],Compound,IC50 (human NEP ectodomain [1]; [9]) [nM],reduction in affinity for nACE compared to omapatrilat (nACE [2]),IC50 (nACE [2]) [nM],C-selectivity factor (cACE [3]),further results
–,"O=C(NCC(=O)N1[C@@H](c2cccc(O)c2)CC[C@H]1C(=O)O)[C@@H](S)Cc1ccc(O)cc1 [AD014, (2S,5R)-5-(3-Hydroxyphenyl)-1-(((S)-3-(4-hydroxyphenyl)-2-mercaptopropanoyl)glycyl)pyrrolidine-2-carboxylic Acid]",20 ± 10,~10,20 ± 7,2,"reduction in affinity for cACE compared to omapatrilat (cACE [3]; factor, from IC50 values): ~10"
0.8 ± 0.2,"Cc1ccc([C@H]2CC[C@@H](C(=O)O)N2C(=O)CNC(=O)[C@@H](S)Cc2ccccc2)cc1 [AD015, (2S,5R)-1-(((S)-2-Mercapto-3-phenylpropanoyl)glycyl)-5-(p-tolyl)pyrrolidine-2-carboxylic Acid]",9 ± 3,10,19 ± 1,–,selectivity for NEP over nACE (human NEP ectodomain [1]; from IC50 values): 2 fold
–,"NCCCC[C@H](NC(=O)[C@@H](S)Cc1ccccc1)C(=O)N[C@@H](Cc1c[nH]c2ccccc12)C(=O)O [AD016, ((S)-2-Mercapto-3-phenylpropanoyl)-L-lysyl-L-tryptophan]",1200 ± 200,–,150 ± 20,21,"IC50 (human NEP ectodomain [1]; 5 μM MCA-[…](Dnp)-OH substrate): 1000 nM; improved NEP inhibitory activity compared to LisW (human NEP ectodomain [1]; ratio of NEP IC50 values, LisW vs compound): over 200 fold; mode of inhibition of NEP (NEP): competitive inhibition; mode of inhibition of nACE (nACE [4]): competitive inhibition; mode of inhibition of cACE (cACE [5]): non-competitive; dissociation from nACE on jump dilution (nACE [6]): dissociates from nACE when diluted; dissociation from cACE on jump dilution (cACE [7]): remains tightly bound"
–,"NCCCC[C@H](N[C@@H](CCc1ccccc1)C(=O)O)C(=O)N[C@@H](Cc1c[nH]c2ccccc12)C(=O)O [LisW, Lisinopril-tryptophan]",–,–,–,–,Ki (human NEP ectodomain [8]): > 150 µM
1 ± 0.1,"O=C(N[C@H]1CCS[C@H]2CCC[C@@H](C(=O)O)N2C1=O)[C@@H](S)Cc1ccccc1 [Omapatrilat, reference compound]",10,–,2 ± 0.1,–,incidence of angioedema relative to enalapril (patients): 3 fold
